Assay: toxicity in vivo (lethality)
Protocol: The formula I compounds may be administered in any convenient dosage form, with the preferred formulations adapted for oral (PO) or intravenous (IV) administration. Since the water solubility of the compounds exceeds 200 mg/mL, formulations are not anticipated to be difficult to make.

## O=S(=O)([O-])CCSSCCS(=O)(=O)[O-].[Na+].[Na+] [Dimesna, Disodium 2,2′-dithiobis ethane sulfonate]
  toxicity compared with common table salt: less toxic than common table salt
IV
  amount not causing a single death in vivo: exceeding 5000 mg/kg

From patent publication US7282602B2, “Medicinal disulfide salts” (BioNumerik Pharmaceuticals, Inc., priority 2004, dated 2007)
